BindingDB's records for doi:10.1021/acsmedchemlett.0c00008 (Taisho Pharmaceutical, 2020)

How the values were obtained:
[1] = Inhibition of Human respiratory syncytial virus A2 Fusion protein expressed in Hep2 cells assessed as reduction in virus-induced cytopathic effect after 4 days by XTT assay
[2] = Inhibition of Human respiratory syncytial virus Fusion protein D486N mutant expressed in Hep2 cells assessed as reduction in virus-induced cytopathic effect after 4 days by XTT assay

SMILES	EC50 [1] [nM]	EC50 [2] [nM]
CC[C@@H](c1cc2nc(N3CC[C@H](N)C3)c(C)cn2n1)N(C)C(=O)c1cc(C)ccc1OC	3.8	> 1000
CC[C@H]1c2cc3nc(N4CC[C@H](N)C4)cc(n3n2)N(C)CCCOc2ccc(C)cc2C(=O)N1C	17	> 1000
CC[C@H]1c2cc3nc(N4CC[C@H](N)C4)cc(n3n2)N(C)CCCCOc2ccc(C)cc2C(=O)N1C	0.66	440
CC[C@H]1c2cc3nc(N4CC[C@H](N)C4)cc(n3n2)N(C)CCCCCOc2ccc(C)cc2C(=O)N1C	6.2	> 1000
CC[C@H]1c2cc3nc(N4CC[C@H](N)C4)cc(n3n2)N(C)CCCCCCOc2ccc(C)cc2C(=O)N1C	54	> 1000
CC[C@H]1c2cc3nc(N4CC[C@H](N)C4)cc(n3n2)NCCCCOc2ccc(C)cc2C(=O)N1C	61	> 1000
CC[C@H]1c2cc3nc(N4CC[C@H](N)C4)c(C)c(n3n2)NCCCCOc2ccc(C)cc2C(=O)N1C	1.4	> 1000
CC[C@H]1c2cc3nc(N4CC[C@H](N)C4)c(C)c(n3n2)N(C)CCCCOc2ccc(C)cc2C(=O)N1C	8.1	> 1000
Cc1ccc2c(c1)C(=O)N1CCCC[C@H]1c1cc3nc(N4CC[C@H](N)C4)cc(n3n1)N(C)CCCCO2	2	8.1
